Legend:
[1] = Metabolite identification in human liver microsomes with NADPH; format: in vitro ADME; conditions: human liver microsomes in the presence of NADPH, LC-MS/MS
[2] = Microsomal stability in human liver microsomes; format: in vitro ADME; conditions: parent remaining after 30mins incubation with human liver microsomes

Row | HLM % parent [2] | SMILES | metabolites formed [1]
1 | – | O=C(CCc1cnnn1-c1cccc(Cl)c1)c1ccccc1 [Compound 12e] | two metabolites were formed with masses equal to (parent+2) and (parent+16)
2 | 4% | CC(C)(C)C(=O)CCc1cnnn1-c1ccccc1 [Compound 13h] | –
